Test system: Zebrafish larvae injected with gentamicin
Assay: Zebrafish gentamicin kidney injury survival assay
Type: in vivo
Protocol: Potential efficacy was tested in zebrafish assays, essentially as follows. Zebrafish were maintained as described (see, e.g., Cianciolo Cosentino, C., et al. (2013) Histone deacetylase inhibitor enhances recovery after AKI. J Am Soc Nephrol, 24 (6), 943-53 and Skrypnyk, N. I., et al. (2016) Delayed treatment with PTBA analogs reduces postinjury renal fibrosis after kidney injury. Am J Physiol Renal Physiol, 310 (8), F705-F716), and embryos from Pitt AB wildtype were used. Zebrafish larvae were injected with a single dose of gentamicin at 3 dpf with 7 ng of gentamicin as previously described. Prior to the gentamicin injection, 3 dpf zebrafish larvae were anesthetized in 0.2% tricaine/E3 medium (5 mM NaCl, 0.33 mM CaCl2), 0.33 mM MgSO4, and 0.17 mM KCl). Glass capillaries were pulled to produce microneedles and were aspirated with […] of 7 ng/nL gentamicin solution diluted with filtered saline solution (Aspen Veterinary Resources, Cat No. 17861615). The larvae were injected with 1 nL gentamicin solution, delivered via the common cardinal vein. After injection, larvae were incubated in 50 μg/mL penicillin/streptomycin diluted in E3 medium. […]
Data were analyzed as compounds that extend survival as measured by Kaplan-Meier estimator.
Table A provides preliminary calculated hazard ratios (n=1) for tested compounds (see also FIGS. 3A and 3B). […]

**Q.** For `COC(=O)CCCSc1ccccc1` [UPHD 25], which “larval survival compared to the injured, untreated control” value (4 μM from 2 days post-injection, days 5-11 post-fertilization) is on record?
**A.** The value was “increase larval survival”.

**Q.** What about the “survival as measured by Kaplan-Meier estimator” value (positive control, all survival assays) of the same molecule?
**A.** Its value is “statistically significant”.

Reference: patent US20260263415A1, “Sulfonamides With Activity in Acute Kidney Injury and Fibrosis” (University of Pittsburgh - Of the Commonwealth System of …, priority 2023, published 2026)
